One assay concerns NRF2. The assay can be described thus: AREc32 luciferase reporter assay. The assay is classed as cell-based, human. To be noted: EC2×: concentration required to increase GST ARE Luciferase reporter activity by 2-fold; AREc32 cells, 19 hours. An outline of the steps:
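AREc32 cells (MCF-7 stably carrying eight rat GSTA2 ARE copies driving firefly luciferase) treated 19 h with compound (0.4–200 nM or 2–1000 nM), triplicate. Luminescence normalized to DMSO as fold-induction; variable-slope fit capped at 50-fold; EC2× = concentration giving 2-fold induction.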
For orientation: A reporter such as luciferase makes a cellular process visible.

Another assay relates to hIL17. The assay can be described thus: IL-17 release from differentiated primary human T-cells (IL-17A HTRF assay). The assay is classed as cell-based. The settings on record: inhibition of IL-17A levels; primary human CD4+ T cells differentiated into Th17 cells, 46-hour incubation. An outline of the steps:
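Cryopreserved primary human CD4+ T cells were activated with anti-CD3/CD28 beads and driven to Th17 with TGF-β, IL-6, IL-23 and IL-1β in the presence of compound (2-500 nM or 4-1000 nM) for 46 h at 37° C. Supernatant IL-17A was quantified by HTRF against a standard curve and normalized to DMSO. IC50s came from variable-slope fits, with viability read by CyQuant.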
(Time-resolved FRET reads energy transfer from a long-lived donor to a nearby acceptor.)

In assay [1] the test system is IFNγ-induced Nitric Oxide production. The assay can be described thus: Nitric oxide production assay in RAW 264.7 mouse macrophages. It is filed as cell-based. The settings on record: RAW264.7, suppression of IFNγ-induced NO production normalized to cell viability (WST-1), RAW 264.7, 24 hours IFNγ. An outline of the steps: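 Cells pre-treated 2 h with compound (0.4-200 nM or 2-1000 nM) in RPMI 1640 + 0.5% FBS, then stimulated with recombinant mouse IFNγ for 24 h at 37 °C. Nitrite measured by Griess reagent, viability by WST-1; IC50 from NO suppression normalized to viability and to DMSO/IFNγ controls.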
On the technique in general: Formazan colour is commonly taken as a measure of viable cells.

A further assay deals with T1, human RORγ (Homo sapiens, UniProt P51449).
T1 sequence (P51449 269-508 limits assumed): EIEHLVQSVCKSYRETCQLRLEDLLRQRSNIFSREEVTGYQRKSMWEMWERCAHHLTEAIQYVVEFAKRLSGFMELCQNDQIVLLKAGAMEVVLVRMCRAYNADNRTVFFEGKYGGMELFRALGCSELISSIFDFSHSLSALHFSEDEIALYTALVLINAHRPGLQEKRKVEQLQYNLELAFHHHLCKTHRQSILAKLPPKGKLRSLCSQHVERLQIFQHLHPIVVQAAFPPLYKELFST
The assay can be described thus: RORγ assay (GAL4-RORγ hybrid luciferase reporter, inverse-agonist activity). It is filed as cell-based. The settings on record: GAL4-RORγ hybrid reporter cells, 23 hours. An outline of the steps:
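Human cell line expressing GAL4-DBD/RORγ hybrid with UAS-driven luciferase, treated in triplicate with compound (0.4–200 nM or 2–1000 nM) for 23 h at 37 °C. Luminescence normalized to DMSO; viability measured in parallel by multiplex assay. IC50 for RORγ and viability by variable-slope nonlinear regression.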

Regarding `CCNC(=O)[C@]12CCC(C)(C)C[C@H]1[C@H]1C(=O)C=C3[C@@]4(C)C=C(C#N)C(=O)[C@@](C)(O)[C@@H]4CC[C@@]3(C)[C@]1(C)CC2` [Compound T26, (4aS,6aR,6bS,8aR,9S,12aS,14aR,14bS)-11-cyano-N-ethyl-9-hydroxy-2,2,6a,6b,9,12a-hexamethyl-10,14-dioxo-1,3,4,5,6,6a,6b,7,8,8a,9,10,12a,14,14a,14b-hexadecahydropicene-4a(2H)-carboxamide], the “EC2x: concentration giving 2-fold induction of ARE luciferase reporter” value with NRF2 stood at 463 nM. The values for the IC50 (with hIL17; in assay [1]; at human RORγ) were 132 nM, 370 nM and 292 nM, respectively.

For the compound `CC1(C)CC[C@]2(NC(=O)C(C)(F)F)CC[C@]3(C)[C@H](C(=O)C=C4[C@@]5(C)C=C(C#N)C(=O)[C@@](C)(O)[C@@H]5CC[C@]43C)[C@@H]2C1` [Compound T27, N-((4aS,6aR,6bS,8aR,9S,12aS,14aR,14bS)-11-cyano-9-hydroxy-2,2,6a,6b,9,12a-hexamethyl-10,14-dioxo-1,3,4,5,6,6a,6b,7,8,8a,9,10,12a,14,14a,14b-hexadecahydropicen-4a(2H)-yl)-2,2-difluoropropanamide], in the assay on NRF2, the “EC2x: concentration giving 2-fold induction of ARE luciferase reporter” value is 396 nM. Also, the IC50 was determined as 62 nM with hIL17, 146 nM in assay [1] and 410 nM at human RORγ.

As to `CC1(C)CC[C@]2(NC(=O)C(C)(F)F)CC[C@]3(C)[C@H](C(=O)C=C4[C@@]5(C)C=C(C#N)C(=O)[C@@](C)(CO)[C@@H]5CC[C@]43C)[C@@H]2C1` [Compound T28, N-((4aS,6aR,6bS,8aR,9R,12aS,14aR,14bS)-11-cyano-9-(hydroxymethyl)-2,2,6a,6b,9,12a-hexamethyl-10,14-dioxo-1,3,4,5,6,6a,6b,7,8,8a,9,10,12a,14,14a,14b-hexadecahydropicen-4a(2H)-yl)-2,2-difluoropropanamide], the “EC2x: concentration giving 2-fold induction of ARE luciferase reporter” value in the assay with NRF2 is given as 117 nM. Also, the IC50 is 67 nM in the assay on hIL17, 21.1 nM in assay [1] and 463 nM on human RORγ.

On to `CC(=O)OC[C@]1(C)C(=O)C(C#N)=C[C@]2(C)C3=CC(=O)[C@@H]4[C@@H]5CC(C)(C)CC[C@]5(NC(=O)C(C)(F)F)CC[C@@]4(C)[C@]3(C)CC[C@H]21` [Compound T29, ((4R,4aR,6aS,6bR,8aS,12aS,12bR,14bS)-2-cyano-8a-(2,2-difluoropropanamido)-4,6a,6b,11,11,14b-hexamethyl-3,13-dioxo-3,4,4a,5,6,6a,6b,7,8,8a,9,10,11,12,12a,12b,13,14b-octadecahydropicen-4-yl)methyl acetate], for which the “EC2x: concentration giving 2-fold induction of ARE luciferase reporter” value in the assay with NRF2 was 360 nM. The results for the IC50 (with hIL17; in assay [1]; on human RORγ) were 37 nM, 118 nM and 141 nM, respectively.

Regarding `CN(C)C(=O)[C@]12CCC(C)(C)C[C@H]1[C@H]1C(=O)C=C3[C@@]4(C)C=C(C#N)C(=O)[C@@](C)(O)[C@@H]4CC[C@@]3(C)[C@]1(C)CC2` [Compound T30, (4aS,6aR,6bS,8aR,9S,12aS,14aR,14bS)-11-cyano-9-hydroxy-N,N,2,2,6a,6b,9,12a-octamethyl-10,14-dioxo-1,3,4,5,6,6a,6b,7,8,8a,9,10,12a,14,14a,14b-hexadecahydropicene-4a(2H)-carboxamide], the “EC2x: concentration giving 2-fold induction of ARE luciferase reporter” value in the assay on NRF2 amounted to 448 nM. Also, the results for the IC50 (in the assay on hIL17; in assay [1]; at human RORγ) were 59 nM, 173 nM and 164 nM, respectively.

In the case of `CC1(C)CC[C@@]23CC[C@@]4(C)[C@]5(C)CC[C@@H]6[C@](C)(C=C(C#N)C(=O)[C@@]6(C)CO)C5=CC(=O)[C@]4(OC2=O)[C@@H]3C1` [Compound T31, (4R,4aR,6aR,6bS,8aS,12aR,12bS,14bS)-4-(hydroxymethyl)-4,6a,6b, 11,11,14b-hexamethyl-3,13,16-trioxo-4,4a,5,6,6a,6b,7,8,10,11,12,12a,13,14b-tetradecahydro-3H,9H-12b,8a-(epoxymethano)picene-2-carbonitrile], the “EC2x: concentration giving 2-fold induction of ARE luciferase reporter” value in the assay on NRF2 amounted to 21 nM. The figures for the IC50 (with hIL17; in assay [1]; at human RORγ) were 20 nM, 10.5 nM and 177 nM, respectively.

A word on the IC50: it is the point on the concentration scale where inhibition reaches its midpoint. The low end stands for greater potency in that assay, the high end for weaker potency in that assay.

Values taken from patent US11584775B2, “C4-modified oleanolic acid derivatives for inhibition of IL-17 and other uses” (REATA PHARMACEUTICALS, INC., priority 2015, dated 2023).
